We go through 32 compounds from US10076519B2 (CYTOKINETICS, INC., priority 2010, dated 2018).

The experiment deals with rabbit skeletal myofibrils (fast skeletal myofibrils). The experiment in a line: Activation of fast skeletal myofibrils (PUMA assay, PK/LDH-coupled ATPase at pCa25). In kind it is biochemical. To be noted: AC1.4 determined according to the procedure of Example 39; reported as class symbols. As for the experimental part: Preparation of Fast Skeletal Myofibrils.
Rabbit skeletal myofibrils were prepared based upon the method of Herrmann et al. (Biochem. 32(28):7255-7263(1993). Myofibrils were prepared from rabbit psoas muscle purchased from Pel-Freez Biologicals (Arkansas) within 2 days of ordering, stored on ice. Minced muscle was homogenized in 10 volumes of ice-cold “standard” buffer (50 mM Tris, pH 7.4, 0.1M potassium acetate, 5 mM KCl, 2 mM DTT, 0.2 mM PMSF, 10 μM leupeptin, 5 μM pepstatin, and 0.5 mM sodium azide) containing 5 mM EDTA and 0.5% Triton X-100 using an Omni-Macro homogenizer. Myofibrils were recovered by low speed centrifugation (3000 rpm for 10 minutes) and washed 2 times in the Triton X-100 containing buffer to ensure removal of cellular membrane. Following the Triton washes, myofibrils were washed 3 times in “standard” buffer containing 2 mM magnesium acetate. A final wash in assay buffer (12 mM PIPES, pH 6.8, 60 mM KCl, 1 mM DTT) was performed and brought to 10% sucrose for flash freezing in liquid nitrogen and storage at −80° C.
Activation of Fast Skeletal Myofibrils.
Fast fiber activators were identified by measuring the enzymatic activity of muscle myofibril preparations using the proprietary PUMA™ (see, e.g., U.S. Pat. Nos. 6,410,254, 6,743,599, 7,202,051, and 7,378,254) assay system. Myofibril preparations consisted of rabbit skeletal muscle (approximately 90% fast fibers) that had been mechanically homogenized and washed with a detergent (triton X-100) to remove cellular membranes. This preparation retained all of the sarcomeric components in a native conformation and the enzymatic activity was still regulated by calcium. Compounds were tested using a myofibril suspension and a level of calcium sufficient to increase enzymatic activity of the myofibrils to 25% of their maximal rate (termed pCa25). Enzymatic activity was tracked via a pyruvate kinase and lactate dehydrogenase-coupled enzyme system. This assay regenerates myosin-produced ADP into ATP by oxidizing NADH, producing an absorbance change at 340 nm. The buffering system was 12 mM Pipes, 2 mM MgCl2, 1 mM DTT at pH 6.8 (PM12 buffer).
Using procedures similar to those described herein, utilizing reagents and intermediates commercially available (e.g., Sigma-Aldrich, St. Louis, Mo.) or readily synthesized by one of skill in the art, the compounds in Table 2 were synthesized, characterized and tested. AC1.4 values were determined according to the procedure described in Example 39, and the reported median AC1.4 values are as follows: A=<1 uM; B=1-10 uM; C=10-20 uM; D=>20 uM.
As to `N#Cc1ccnc(C2(CNc3ccc(-c4ccc5[nH]ncc5c4)nn3)CCC2)c1`, the “Mean AC1.4” value is on record as “A (A=<1 uM)”.
With `NC(=O)c1ccnc(C2(CNc3ccc(-c4ccc5[nH]ncc5c4)nn3)CCC2)c1`, the “Mean AC1.4” value was “C (C=10-20 uM)”.
The entry for `Oc1ccnc(C2(CNc3ccc(-c4ccc5cn[nH]c5c4)nn3)CCC2)c1` is “D (D=>20 uM)”; for `NC(=O)c1ccnc(C2(CNc3ccc(-c4cc(C(N)=O)ccc4F)nn3)CCC2)c1` it is “D (D=>20 uM)”.
Turning to `NC(=O)c1cccc(-c2ccc(NCC3(c4cc(C(N)=O)ccn4)CCC3)nn2)c1`, the “Mean AC1.4” value is recorded as “D (D=>20 uM)”.
On to `CC(C)(CNc1ccc(-c2ccc3c(=O)[nH]c(N)nc3c2)nn1)c1ccc(F)cc1`, for which the “Mean AC1.4” value is reported as “C (C=10-20 uM)”.
The entry for `NCC(=O)Nc1n[nH]c2ccc(-c3ccc(NCC4(c5ncccc5F)CCC4)nn3)cc12` is “B (B=1-10 uM)”.
Turning to `O=C(O)c1cc(-c2ccc(NCC3(c4ncccc4F)CCC3)nn2)ccc1F`, the “Mean AC1.4” value is listed as “B (B=1-10 uM)”.
For `NC(=O)c1cccc(-c2ccc(NCC3(c4ccccn4)CCC3)nn2)c1` the value was “A (A=<1 uM)”.
The entry for `NS(=O)(=O)c1cccc(-c2ccc(NCC3(c4ncccc4F)CCC3)nn2)c1` is “A (A=<1 uM)”.
For `Cc1ccc(C(N)=O)cc1-c1ccc(NCC2(c3ncccc3F)CCC2)nn1` the value was “B (B=1-10 uM)”; for `N#Cc1ccnc(C2(CNc3ccc(-c4cccc(C(N)=O)c4)nn3)CCC2)c1`, “B (B=1-10 uM)”; for `N#Cc1ccnc(C2(CNc3ccc(-c4cc(C(N)=O)ccc4F)nn3)CCC2)c1`, “B (B=1-10 uM)”.
For `NC(=O)c1cccc(-c2ccc(NCC3(c4ccc(F)cc4)CCC3)nn2)c1`, the “Mean AC1.4” value was “A (A=<1 uM)”.
As for `N#Cc1cccc(C2(CNc3ccc(-c4cccc(C(N)=O)c4)nn3)CCC2)n1`, the “Mean AC1.4” value was “B (B=1-10 uM)”.
The entry for `NC(=O)n1nc(N)c2cc(-c3ccc(NCC4(c5ncccc5F)CCC4)nn3)ccc21` is “B (B=1-10 uM)”.
The entry for `COc1cccnc1C1(CNc2ccc(-c3cc(C(N)=O)ccc3F)nn2)CCC1` is “B (B=1-10 uM)”; for `NC(=O)c1ccc(F)c(-c2ccc(NCC3(c4cc(O)ccn4)CCC3)nn2)c1` it is “D (D=>20 uM)”; for `COc1ccc(C2(CNc3ccc(-c4cc(C(N)=O)ccc4F)nn3)CCC2)nc1` it is “D (D=>20 uM)”.
Take `O=c1[nH]c2ccc(-c3ccc(NCC4(c5ncccc5F)CCC4)nn3)cc2[nH]1`: the “Mean AC1.4” value is listed as “B (B=1-10 uM)”.
Consider `CC1(C)C(=O)Nc2cc(-c3ccc(NCC4(c5ncccc5F)CCC4)nn3)ccc21`, for which the “Mean AC1.4” value is recorded as “D (D=>20 uM)”.
The entry for `N#Cc1ccc(C2(CNc3ccc(-c4ccc5[nH]ncc5c4)nn3)CCC2)nc1` is “B (B=1-10 uM)”.
Take `NC(=O)c1cccc(C2(CNc3ccc(-c4ccc5[nH]ncc5c4)nn3)CCC2)n1`: the “Mean AC1.4” value is “B (B=1-10 uM)”.
For `N#Cc1cccc(C2(CNc3ccc(-c4ccc5[nH]ncc5c4)nn3)CCC2)n1` the value was “B (B=1-10 uM)”; for `NC(=O)c1cccc(-c2ccc(NCC3(c4cccc(C(N)=O)n4)CCC3)nn2)c1`, “D (D=>20 uM)”.
The entry for `CC(=O)Nc1n[nH]c2ccc(-c3ccc(NCC4(c5ncccc5F)CCC4)nn3)cc12` is “B (B=1-10 uM)”; for `CNC(=O)c1cc(-c2ccc(NCC3(c4ncccc4F)CCC3)nn2)ccc1F` it is “B (B=1-10 uM)”.
Take `CS(=O)(=O)Nc1cccc(-c2ccc(NCC3(c4ncccc4F)CCC3)nn2)c1`: the “Mean AC1.4” value was “B (B=1-10 uM)”.
The entry for `CS(=O)(=O)Nc1ccc(-c2ccc(NCC3(c4ncccc4F)CCC3)nn2)cc1` is “B (B=1-10 uM)”; for `CS(=O)(=O)Nc1n[nH]c2ccc(-c3ccc(NCC4(c5ncccc5F)CCC4)nn3)cc12` it is “A (A=<1 uM)”; for `N=C(N)Nc1cccc(-c2ccc(NCC3(c4ncccc4F)CCC3)nn2)c1` it is “B (B=1-10 uM)”.
The entry for `N=C(N)Nc1ccc(-c2ccc(NCC3(c4ncccc4F)CCC3)nn2)cc1` is “B (B=1-10 uM)”.
